Reference: patent US20200339544A1 (JOINT STOCK COMPANY "BIOCAD", priority 2017, published 2020)
Where two headings read alike, the source gives them in different places. Marks after values point to notes of the source that are not given here.

Key:
[1] = General cytotoxicity on HepG2 cells; format: cell-based; settings: human; general cytotoxicity, HepG2 cells, 72 hours, average of several tests
Method: (§1) The CC50 values were determined in the test for General cytotoxicity on HepG2 cells (rhepatocellular carcinoma, ATCC® HB-8065™) (Table 16). The cells were subcultured in DMEM medium (PanEco, S420p) supplemented with 10% FBS (Gibco, #16140071) for at least 1 passage after thawing, washed with PBS and passaged in 96-well culture plates (3599, Corning) at a concentration of 2*10^4 cells/100 μL per well, and incubated for 16-18 h. The test substances were titrated in DMSO and transferred to DMEM (PanEco, S420p) medium supplemented with 2% FBS, added to the cells and incubated at 37° C. for 72 hours; viability of the cells was then assessed using Alamar Blue dye (ThermoFisher, # DAL1100). CC50 was determined similarly to IC50.
(§2) The ratio between CC50 for HepG2 cell line and IC50 for H1975 cell line is the therapeutic index (TI): […]

HepG2 cells = test: General cytotoxicity on HepG2 cells; format: cell-based; settings: therapeutic index, CC50 HepG2 / IC50 H1975
Method: as §1, §2

[2] = system: A549 (lung adenocarcinoma, WT); test: Antiproliferative activity on A549 cells (Alamar Blue); format: cell-based; settings: Homo sapiens, antiproliferative test
Method: (§3) Antiproliferative activity of EGFR inhibitors (Tables 15 and 16) was measured in cell-based bioassay on continuous epithelial cell cultures: A549 (lung adenocarcinoma, ATCC® CRM-CCL-185™—WT), HCC827 (lung adenocarcinoma, ATCC® CRL-2868™—SM (SingleMutantEGFR, exon19delE746-A750)) and H1975 (lung adenocarcinoma, ATCC® CRL-5908™—DM (DoubleMutantEGFR, L828R/T790M)) using cell viability reagent Alamar Blue (ThermoFisher, # DAL1100). Cells were cultured in 10% FBS-supplemented (Gibco, #16140071) RPMI-1640 (PanEco, S330p) for at least 1 passage after thawing, washed with PBS and passaged in 96-well culture plates (3599, Corning) with RPMI-1640 growth medium supplemented with 2% FBS in an amount of 5*10^3 cells/well for A549, 10*10^3 cells/well for HCC827 and 15*10^3 cells/well for H1975 in 100 μL, and incubated at 37° C. in an incubator (Thermo Forma, USA) under 5% of CO2 for 16-18 h for cell attachment.
(§4) The test compounds were dissolved in DMSO in the selected range of concentrations and transferred to RPMI-1640 medium (PanEco, S330p) supplemented with 2% FBS. After adding 50 μl of the prepared dilutions to the cells, the incubation mixture contained the final concentrations of the test substances and no more than 1% DMSO. The plates were Incubated at 37° C. for 72 h. After incubation, 15 μl of Alamar Blue vital dye (ThermoFisher, # DAL1100) was added to each well. The plates were shaken on an orbital shaker (Biosan, Latvia) and further incubated for 3-5 h in a CO2 incubator (Thermo Forma, USA). Number of living cells was estimated using a plate spectrophotometer Infinite M200Pro, (Tecan, Switzerland) measuring fluorescent signal at the excitation wavelength (λEx) of 540 nm and emission wavelength (λEm) of 590 nm.
IC50 was calculated using Magellan 7.2 software (Tecan, Switzerland) approximating experimental points by four-parameter logistic model with the optimization by Levenberg-Marquardt.
(§5) The ratio between IC50 for cell lines containing wild-type EGFR (A549) and IC50 for cell lines containing target mutation L828R/T790M (H1975) is the selectivity index (SI): […]

[3] = biological target: T1, DM EGFR (DoubleMutantEGFR, L828R/T790M) (Homo sapiens, UniProt P00533, L858R/T790M); test: Inhibition of DM EGFR kinase activity (ADP-Glo); format: biochemical; settings: for IC50: inhibition of kinase activity, EGFR DM (L828R/T790M); for SI, IC50(WT)/IC50(DM): selectivity index, kinase EGFR WT vs EGFR DM
T1 construct: purchased SignalChem
Method: (§6) To assess IC50 values of the compounds disclosed herein, a biochemical assay of inhibition of kinase activity in a non-cellular system and a functional cellular anti-proliferation assay were used.
(§7) To assess inhibition of WT EGFR (Wild-Type EGFR), DM EGFR (DoubleMutantEGFR, L828R/T790M) kinase activity, SignalChem kinase system and ADP-Glo™ Kinase Assay (V9102, Promega) detection kit were used.
(§8) The measurements were carried out in a 25 μL reaction volume using a 96-well plate. […] The solution of 0.5 mg/mL peptide substrate and 50 μM ATP in the same buffer were added; the solution was incubated for 180 minutes at 37° C. To detect the amount of ATP taken up during the kinase reaction, the ADP Glo Detection Kit (V9102, Promega) was used. The luminescence was measured with the Infinite M200Pro plate spectrophotometer (Tecan, Switzerland). IC50 values were calculated using Magellan 7.2 software (Tecan, Switzerland) approximating experimental points by four-parameter logistic model with the optimization by Levenberg-Marquardt (Table 14).

WT EGFR (Wild-Type EGFR) = biological target: T2, WT EGFR (Wild-Type EGFR) (Homo sapiens, UniProt P00533); test: Inhibition of WT EGFR kinase activity (ADP-Glo); format: biochemical
T2 construct: purchased SignalChem
Method: as §6, §7, §8

[4] = system: H1975 (lung adenocarcinoma, DM, L828R/T790M); test: Antiproliferative activity on H1975 cells (Alamar Blue); format: cell-based; settings: for IC50: Homo sapiens, NCI-H1975, H1975 cells; for SI IC50(A549)/IC50(DM): selectivity index, A549 vs H1975 cells
Method: as §3, §4
IC50 was calculated using Magellan 7.2 software (Tecan, Switzerland) approximating experimental points by four-parameter logistic model with the optimization by Levenberg-Marquardt. […]
as §5

[5] = Enzyme stability in human liver S9 fractions; format: in vitro ADME; settings: 0.5 mg/mL pooled human liver S9 fractions; 10 μM compound; 37° C.; pH 7.4; read-out: Stability in liver S9 fractions, Clint
Method: Determination of enzyme stability.
Measuring of candidate enzyme stability enabled estimation of the stability of the compounds towards the action of liver enzymes.
Enzyme degradation rate was measured by incubating the reaction mixture in a dry block thermostat at 37° C., said reaction mixture comprising 0.5 mg/mL of pooled human liver S9 fractions (XenoTech, USA, cat # H0610), 10 μM compound, 2 mM β-nicotinamide adenine dinucleotide (Carbosynth, UK, cat # NN10871) and 4 mM magnesium chloride in 0.1 M sodium-phosphate buffer, pH=7.4. The reaction was quenched with acetonitrile (100 μL of acetonitrile/100 μL of the reaction mixture). After quenching, the samples were centrifuged at 10000 rpm for 10 minutes. Supernatant fluid was tested by chromatographic technique using Agilent1200 (Agilent, USA). We used gradient elution (1 mL/min flow rate). A graph of the logarithm of substance's peak area as a function of time was made. The dependent factor of the line corresponded to the elimination rate constant K based on which the drug's half-life T½ and intrinsic clearance CLint were calculated:
Based on the data obtained, candidate enzyme stability in human liver S9 fractions was determined (see Table 11).

[6] = Chemical stability in human blood plasma; format: in vitro ADME; settings: pooled human blood plasma; 10 μm; 4 hours at 37° C.; substance amount remaining
Method: 2) Determination of chemical stability in human blood plasma.
Determination of stability in human blood plasma was performed using pooled human blood plasma taken from ten healthy donors. The initial candidate solution (10 mM in DMSO) was diluted with pooled blood plasma to a concentration of 10 μm (test solution). The test solution was incubated in a dry block thermostat for 4 hours at 37° C. HPLC with Agilent 1200 liquid chromatography system (Agilent, USA) was employed to determine peak areas of the compounds in test samples, said peak areas corresponding to the initial test time (prior to incubation) and the final test time (after incubation in a dry block thermostat for 4 hours at 37° C.), proteins were preliminarily precipitated with acetonitrile. We used gradient elution (1 mL/min flow rate). Substance amount in % in a sample after thermostatting was determined.
The stability of the compounds was estimated.

[7] = average values obtained in several tests, Table 16, read-out: H1975 (DM) IC50
[8] = antiproliferative test, Table 15, read-out: IC50 H1975 (DM)

Row | Compound | IC50 [2] | IC50 [3] | SI, IC50(WT)/IC50(DM) [3] | IC50 (WT EGFR (Wild-Type EGFR)) | IC50 [4, 7] | IC50 [4, 8] | Intrinsic clearance in human liver S9 fractions at 10 µM [5] | Stability in blood plasma, % [6] | CC50 at 72 h [1] | TI, CC50/IC50 (HepG2 cells) | SI IC50(A549)/IC50(DM) [4]
1 | C=CC(=O)Nc1cc(Nc2nccc(C(=O)c3ccc(NCCO)cc3)n2)c(OC)cc1N(C)CCN(C)C.O=CO [EGFR_3365_106, N-(2-((2-(dimethylamino)ethyl)(methyl)amino)-5-((4-(4-((2-hydroxyethyl)amino)benzoyl)pyrimidin-2-yl)amino)-4-methoxyphenyl)acrylamide formate] | > 20000 nM | 5.5 nM | 19.68 | 108 nM | 33.3 nM | 33.3 nM | 6.7 µL/min/mg | 95.2% | > 50000 nM | >1501** | >601
2 | C=CC(=O)Nc1cc(Nc2nccc(C(=O)c3ccc(N4CC[C@H](O)C4)cc3)n2)c(OC)cc1N(C)CCN(C)C.O=CO [EGFR_3365_112, (S)-N-(2-((2-(dimethylamino)ethyl)(methyl)amino)-5-((4-(4-(3-hydroxypyrrolidin-1-yl)benzoyl)pyrimidin-2-yl)amino)-4-methoxyphenyl)acrylamide formate] | 37300 nM | 2.05 nM | 11.48 | 23.5 nM | 15.3 nM | 15.3 nM | 6.8 µL/min/mg | 96.9% | > 50000 nM | >3267 | 2443
3 | C=CC(=O)Nc1cc(Nc2nccc(C(=O)c3ccc(N4CC[C@H](OC)C4)cc3)n2)c(OC)cc1N(C)CCN(C)C [EGFR_3365_114, (S)-N-(2-((2-(dimethylamino)ethyl)(methyl)amino)-4-methoxy-5-((4-(4-(3-methoxypyrrolidin-1-yl)benzoyl)pyrimidin-2-yl)amino)phenyl)acrylamide] | 14200 nM | 2.02 nM | 25.37 | 51.4 nM | 12.1 nM | 12.1 nM | 16 µL/min/mg | 93.9% | 23800 nM | 1970 | 1175

Continued, in another order:

Row | IC50 [2] | IC50 [3] | SI, IC50(WT)/IC50(DM) [3] | IC50 (WT EGFR (Wild-Type EGFR)) | IC50 [4, 7] | IC50 [4, 8] | Intrinsic clearance in human liver S9 fractions at 10 µM [5] | Stability in blood plasma, % [6] | Compound | CC50 at 72 h [1] | TI, CC50/IC50 (HepG2 cells) | SI IC50(A549)/IC50(DM) [4]
4 | 21400 nM | 1.71 nM | 14.85 | 25.4 nM | 4.35 nM | 4.35 nM | 12.8 µL/min/mg | 100.0% | C=CC(=O)Nc1cc(Nc2nccc(C(=O)c3ccc(N4CCC[C@H](O)C4)cc3)n2)c(OC)cc1N(C)CCN(C)C [EGFR_3365_108, (S)-N-(2-((2-(dimethylamino)ethyl)(methyl)amino)-5-((4-(4-(3-hydroxypiperidin-1-yl)benzoyl)pyrimidin-2-yl)amino)-4-methoxyphenyl)acrylamide] | 47900 nM | 11026 | 4925
5 | 17700 nM | 3.14 nM | 8.03 | 25.2 nM | 8.66 nM | 8.66 nM | 14.8 µL/min/mg | 98.2% | C=CC(=O)Nc1cc(Nc2nccc(C(=O)c3ccc(N4CCC[C@@H](O)C4)cc3)n2)c(OC)cc1N(C)CCN(C)C [EGFR_3365_109, (R)-N-(2-((2-(dimethylamino)ethyl)(methyl)amino)-5-((4-(4-(3-hydroxypiperidin-1-yl)benzoyl)pyrimidin-2-yl)amino)-4-methoxyphenyl)acrylamide] | 45400 nM | 5245 | 2043
6 | 13600 nM | 2.54 nM | 17.09 | 43.4 nM | 4.42 nM | 4.42 nM | 10.5 µL/min/mg | 94.0% | C=CC(=O)Nc1cc(Nc2nccc(C(=O)c3ccc(N4CC[C@@H](O)C4)cc3)n2)c(OC)cc1N(C)CCN(C)C [EGFR_3365_113, (R)-N-(2-((2-(dimethylamino)ethyl)(methyl)amino)-5-((4-(4-(3-hydroxypyrrolidin-1-yl)benzoyl)pyrimidin-2-yl)amino)-4-methoxyphenyl)acrylamide] | 46300 nM | 10481 | 3073
